Laboratory results as given in patent publication US9447086B2, “6-amino acid heteroaryldihydropyrimidines for the treatment and prophylaxis of hepatitis B virus infection” (priority 2012, dated 2016).
Values after ≈ are worked out from the molar mass of the structure shown.

Columns and labels:
HBV [1] = test: Anti-HBV activity in vitro in HepG2.2.15 cells (extracellular HBV DNA by qPCR); type: cell-based, Hepatitis B virus; settings: Hepatitis B virus; HepG2.2.15 cells; in-house data; read-out: EC50
Outline: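 HepG2.2.15 cells, which constitutively produce HBV, were seeded overnight and then treated for 5 days with half-log serially diluted compounds at 0.5% final DMSO. Extracellular HBV DNA in culture supernatant was extracted and quantified by qPCR.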

HepDE19 cells = test: Cytotoxicity (CC50) in HepDE19 cells, CCK-8 cell viability; type: cell-based
Outline: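 HBV-transfected HepG2-derived HepDE19 cells grown in DMEM-F12 with 10% FBS and G418. Viability read five days after treatment by CCK-8, 2 h at 37 °C, absorbance at 450 and 630 nm.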

HBV [2] = test: Selectivity index (CC50 value/EC50 value); type: cell-based, Hepatitis B virus
Outline: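 Ratio of CC50 to EC50, measuring antiviral activity against HBV relative to cytotoxicity in vitro; higher values indicate greater separation between viral inhibition and cell death.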

[3] = Metabolic stability study in human microsome; type: in vitro ADME
Outline: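 Human liver microsomes (0.5 mg/mL) with 1 μM compound in 100 mM phosphate pH 7.4 at 37 °C, started with 1 mM NADPH or an NADPH-regenerating system. Samples taken at 0, 3, 6, 9, 15 and 30 min, quenched in methanol. Parent remaining measured by LC-MS/MS; no-cofactor controls included.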

[4] = Lyophilisation solubility assay (Lysa); type: physicochemical; settings: phosphate buffer, pH 6.5, aqueous buffer, thermodynamic from solid
Outline: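 Duplicate samples from 10 mM DMSO stocks are dried, redissolved in 0.05 M phosphate buffer pH 6.5, stirred 1 h, shaken 2 h and left overnight. Filtrate and its 1/10 dilution are quantified by direct UV or HPLC-UV, giving solubility in μg/mL.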

Structure (SMILES)	EC50 (HBV [1])	CC50 (HepDE19 cells)	Selectivity index (CC50/EC50) (HBV [2])	Human Hepatic Clearance [3]	solubility thermodynamic [4]
COC(=O)C1=C(CN2CCOC[C@H]2C(=O)O)NC(c2nc(C(F)(F)F)cs2)=N[C@H]1c1ccc(F)cc1Cl [Example 95, (S)-4-[(R)-6-(2-Chloro-4-fluoro-phenyl)-5-methoxycarbonyl-2-(4-trifluoromethyl-thiazol-2-yl)-3,6-dihydro-pyrimidin-4-ylmethyl]-morpholine-3-carboxylic acid]	0.0025 µM	> 100 µM	40000	3.04 mL/min/kg	> 705 µg/mL
CCOC(=O)C1=C(CN2CCOC[C@H]2C(=O)O)NC(c2nccs2)=N[C@H]1c1ccc(F)c(F)c1C [Example 96, (S)-4-[(S)-6-(3,4-Difluoro-2-methyl-phenyl)-5-ethoxycarbonyl-2-thiazol-2-yl-3,6-dihydro-pyrimidin-4-ylmethyl]-morpholine-3-carboxylic acid]	0.0006 µM	97 µM	161667	4.8 mL/min/kg	> 628 µg/mL
CC(C)OC(=O)C1=C(CN2CCOC[C@H]2C(=O)O)NC(c2nccs2)=N[C@H]1c1ccc(F)cc1Cl [Example 98, (S)-4-[(R)-6-(2-Chloro-4-fluoro-phenyl)-5-isopropoxycarbonyl-2-thiazol-2-yl-3,6-dihydro-pyrimidin-4-ylmethyl]-morpholine-3-carboxylic acid]	0.017 µM	72 µM	4224	0 mL/min/kg	> 650 µg/mL
COC(=O)C1=C(CN2CCO[C@H](C)[C@H]2C(=O)O)NC(c2nccs2)=N[C@H]1c1ccc(F)cc1Cl [Example 104, (2R,3S)-4-[(R)-6-(2-Chloro-4-fluoro-phenyl)-5-methoxycarbonyl-2-thiazol-2-yl-3,6-dihydro-pyrimidin-4-ylmethyl]-2-methyl-morpholine-3-carboxylic acid]	0.007 µM	> 100 µM	>14286	5.42 mL/min/kg	> 667 µg/mL
COC(=O)C1=C(CN2CCOC[C@@]2(C)C(=O)O)NC(c2nccs2)=N[C@H]1c1ccc(F)cc1Cl [Example 121, (S)-4-(((R)-6-(2-Chloro-4-fluorophenyl)-5-(methoxycarbonyl)-2-(thiazol-2-yl)-3,6-dihydropyrimidin-4-yl)methyl)-3-methylmorpholine-3-carboxylic acid]	0.02 µM	> 100 µM	>5000	1.42 mL/min/kg	600 µg/mL (≈ 1180 µM)
CCOC(=O)C1=C(CN2CCOC[C@H]2C(=O)O)NC(c2nccs2)=N[C@H]1c1ccc(F)c(F)c1Br [Example 128, (3S)-4-[[(4R)-4-(2-Bromo-3,4-difluorophenyl)-5-ethoxycarbonyl-2-(1,3-thiazol-2-yl)-1,4-dihydropyrimidin-6-yl]methyl]morpholine-3-carboxylic acid]	0.0006 µM	51 µM	85000	0.26 mL/min/kg	> 710 µg/mL
